Measured values published in ChEMBL document CHEMBL2073749, “Rat organic anion transporter 3 (rOAT3) is responsible for brain-to-blood efflux of homovanillic acid at the abluminal membrane of brain capillary endothelial cells” (J Cereb Blood Flow Metab, 2003).

Legend:
[1] = target: T1, Organic anion transporter 3 (OAT3) (Rattus norvegicus, UniProt Q9R1U7); assay: TP_TRANSPORTER: inhibition of Homovanillic acid uptake (HVA: 0.2 uM, PCG: 1000 uM) in Xenopus laevis oocytes; assay type: functional, cell-based, Oocyte; set-up: scale not given: the % may be the effect or the level left; details: Xenopus laevis oocytes (Organic anion transporter 3), probe Homovanillic acid (HVA), read-out: Activity
T1 sequence (Q9R1U7 whole entry): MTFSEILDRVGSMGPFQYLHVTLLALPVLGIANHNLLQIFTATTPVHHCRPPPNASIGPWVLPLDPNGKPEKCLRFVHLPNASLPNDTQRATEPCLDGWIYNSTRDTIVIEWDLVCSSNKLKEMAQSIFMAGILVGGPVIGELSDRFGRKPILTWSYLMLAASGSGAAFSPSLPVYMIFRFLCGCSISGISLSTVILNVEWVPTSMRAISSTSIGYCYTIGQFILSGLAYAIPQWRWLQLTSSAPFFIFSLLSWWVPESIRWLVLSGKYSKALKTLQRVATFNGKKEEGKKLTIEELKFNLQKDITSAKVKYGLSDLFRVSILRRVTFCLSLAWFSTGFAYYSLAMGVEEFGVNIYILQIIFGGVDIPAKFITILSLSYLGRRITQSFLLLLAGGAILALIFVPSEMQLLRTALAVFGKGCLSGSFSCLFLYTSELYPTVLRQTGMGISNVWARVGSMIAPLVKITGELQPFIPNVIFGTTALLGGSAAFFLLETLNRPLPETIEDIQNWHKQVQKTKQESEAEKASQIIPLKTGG

[2] = target: T1, Organic anion transporter 3 (OAT3); assay: TP_TRANSPORTER: inhibition of Homovanillic acid uptake (HVA: 0.2 uM, 6-mercaptopurine: 1000 uM) in Xenopus laevis oocytes; assay type: functional, cell-based, Oocyte; set-up: scale not given: the % may be the effect or the level left; details: Xenopus laevis oocytes (Organic anion transporter 3), probe Homovanillic acid (HVA), read-out: Activity
[3] = target: T1, Organic anion transporter 3 (OAT3); assay: TP_TRANSPORTER: inhibition of Homovanillic acid uptake (HVA: 0.2 uM, Indomethacin: 1000 uM) in Xenopus laevis oocytes; assay type: functional, cell-based, Oocyte; set-up: scale not given: the % may be the effect or the level left; details: Xenopus laevis oocytes (Organic anion transporter 3), probe Homovanillic acid (HVA), read-out: Activity
[4] = target: T1, Organic anion transporter 3 (OAT3); assay: in vitro; details: xenopus laevis, Xenopus laevis oocytes (Organic anion transporter 3), probe Homovanillic acid (HVA), 0.2 uM
Description: TP_TRANSPORTER: inhibition of Homovanillic acid uptake (HVA: 0.2 uM, Cimetidine: 1000 uM) in Xenopus laevis oocytes

[5] = target: T1, Organic anion transporter 3 (OAT3); assay: TP_TRANSPORTER: inhibition of Homovanillic acid uptake (HVA: 0.2 uM, Probenecid: 1000 uM) in Xenopus laevis oocytes; assay type: functional, cell-based, Oocyte; set-up: scale not given: the % may be the effect or the level left; details: Xenopus laevis oocytes (Organic anion transporter 3), probe Homovanillic acid (HVA), read-out: Activity
[6] = target: T1, Organic anion transporter 3 (OAT3); assay: TP_TRANSPORTER: inhibition of Homovanillic acid uptake (HVA: 0.2 uM, E1S; 1000 uM) in Xenopus laevis oocytes; assay type: functional, cell-based, Oocyte; set-up: scale not given: the % may be the effect or the level left; details: Xenopus laevis oocytes (Organic anion transporter 3), probe Homovanillic acid (HVA), read-out: Activity
[7] = target: T1, Organic anion transporter 3 (OAT3); assay: TP_TRANSPORTER: inhibition of Homovanillic acid uptake (HVA: 0.2 uM, Baclofen: 1000 uM) in Xenopus laevis oocytes; assay type: functional, cell-based, Oocyte; set-up: scale not given: the % may be the effect or the level left; details: Xenopus laevis oocytes (Organic anion transporter 3), probe Homovanillic acid (HVA), read-out: Activity
[8] = target: T1, Organic anion transporter 3 (OAT3); assay: TP_TRANSPORTER: inhibition of Homovanillic acid uptake (HVA: 0.2 uM, PAH: 1000 uM) in Xenopus laevis oocytes; assay type: functional, cell-based, Oocyte; set-up: scale not given: the % may be the effect or the level left; details: Xenopus laevis oocytes (Organic anion transporter 3), probe Homovanillic acid (HVA), read-out: Activity
[9] = substrate: COc1cc(CC(=O)O)ccc1O; assay: TP_TRANSPORTER: uptake in Xenopus laevis oocytes; assay type: functional, cell-based, Oocyte

`CC1(C)S[C@@H]2[C@H](NC(=O)Cc3ccccc3)C(=O)N2[C@H]1C(=O)O` [PENICILLIN G] showed an activity at 1000 µM [1] of 1.01%.

With `Sc1ncnc2nc[nH]c12` [MERCAPTOPURINE ANHYDROUS] the activity at 1000 µM [2] was 8.67%.

`COc1ccc2c(c1)c(CC(=O)O)c(C)n2C(=O)c1ccc(Cl)cc1` [INDOMETHACIN] was tested, and the activity at 1000 µM [3] was 40.9%.

`CN/C(=N/CCSCc1nc[nH]c1C)NC#N` [CIMETIDINE] was tested, and the activity at 1000 µM [4] was 24.5%.

Molecule `CCCN(CCC)S(=O)(=O)c1ccc(C(=O)O)cc1` [PROBENECID] has an activity at 1000 µM [5] of 23.4%.

In the case of `C[C@]12CC[C@@H]3c4ccc(OS(=O)(=O)O)cc4CC[C@H]3[C@@H]1CCC2=O` [ESTRONE SULFURIC ACID], the activity at 1000 µM [6] is reported as 4.35%.

`NCC(CC(=O)O)c1ccc(Cl)cc1` (centres undefined) [BACLOFEN] showed an activity at 1000 µM [7] of 23.2%.

Molecule `Nc1ccc(C(=O)NCC(=O)O)cc1` [AMINOHIPPURIC ACID] has an activity at 1000 µM [8] of 20.3%.

B1: Organic anion transporter 3 (Rattus norvegicus) (protein)
chain: T1 sequence (Q9R1U7 whole entry)
B1 gave a Km [9] of 274 µM.
